{"source": "patent US20060240048A1", "about": "(priority 2002, published 2006)", "target": "T1, human cannabinoid CB2 receptor (Homo sapiens, UniProt P34972)", "T1 construct": "expressed in transfected cells; host or cells: Saccharomyces cerevisiae strain MMY23", "T1 sequence (P34972 whole entry)": "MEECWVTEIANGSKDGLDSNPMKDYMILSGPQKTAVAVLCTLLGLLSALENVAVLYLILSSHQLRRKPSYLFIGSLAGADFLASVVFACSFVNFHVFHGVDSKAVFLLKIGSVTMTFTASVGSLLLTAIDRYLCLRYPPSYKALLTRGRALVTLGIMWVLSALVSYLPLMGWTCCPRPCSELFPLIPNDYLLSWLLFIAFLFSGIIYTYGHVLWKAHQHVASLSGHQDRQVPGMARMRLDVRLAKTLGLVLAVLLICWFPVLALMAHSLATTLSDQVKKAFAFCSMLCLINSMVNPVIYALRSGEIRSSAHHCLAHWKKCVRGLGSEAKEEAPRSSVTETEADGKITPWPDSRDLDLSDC", "test": "Cannabinoid CB2 receptor agonist activity, yeast reporter assay (FDGlu fluorescence);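 for Emax: 100% equals maximal response of reference agonist HU210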", "type": "cell-based", "details": "for Emax: read-out: efficacy value (Emax) at the cloned human cannabinoid CB2 receptor", "description": "The cannabinoid CB2 receptor agonist activity of the compounds of formula (I) was determined in accordance with the following experimental method.\nYeast (Saccharomyces cerevisiae) cells expressing the human cannabinoid CB2 receptor were generated by integration of an expression cassette into the ura3 chromosomal locus of yeast strain MMY23. This cassette consisted of DNA sequence encoding the human CB2 receptor flanked by the yeast GPD promoter to the 5′ end of CB2 and a yeast transcriptional terminator sequence to the 3′ end of CB2. MMY23 expresses a yeast/mammalian chimeric G-protein alpha subunit in which the C-terminal 5 amino acids of Gpa1 are replaced with the C-terminal 5 amino acids of human Gαi3 (as described in Brown et al. (2000), Yeast 16:11-22). Cells were grown at 30° C. in liquid Synthetic Complete (SC) yeast media (Guthrie and Fink (1991), Methods in Enzymology, Vol. 194) lacking uracil, tryptophan, adenine and leucine to late logarithmic phase (approximately 6 OD600/ml).\nAgonists were prepared as 10 mM stocks in DMSO. […] Agonist solutions in DMSO (1% final assay volume) were transferred into black, clear bottom, microtitre plates from NUNC (96- or 384-well). […] This mixture (50 ul per well for 384-well plates, 200 ul per well for 96-well plates) was added to agonist in the assay plates (Multidrop 384, Labsystems). After incubation at 30° C. for 24 hours, fluorescence resulting from degradation of FDGlu to fluorescein due to exoglucanase, an endogenous yeast enzyme produced during agonist-stimulated cell growth, was determined using a Spectrofluor microtitre plate reader (Tecan; excitation wavelength: 485 nm; emission wavelength: 535 nm). Fluorescence was plotted against compound concentration and iteratively curve fitted using a four parameter fit to generate a concentration effect value.\nwhere Max[compound X] and Min[compound X] are the fitted maximum and minimum respectively from the concentration effect curve for compound X, and Max[HU210] and Min[HU210] are the fitted maximum and minimum respectively from the concentration effect curve for (6aR,10aR)-3-(1,1′-Dimethylheptyl)-6a,7,10,10a-tetrahydro-1-hydroxy-6,6-dimethyl-6H-dibenzo[b,d]pyran-9-methanol (HU210; available from Tocris). Equieffective molar ratio (EMR) values were calculated from the equation EMR=EC50 [compound X]/EC50 [HU210]\nWhere EC50 [compound X] is the EC50 of compound X and EC50 [HU210] is the EC50 of HU210.", "data": [{"molecule": "COc1cccc(Nc2cc(C(C)C)c(C(=O)NCC3CCCCC3)cn2)c1", "note": "[Example 9, N-Cyclohexylmethyl-4-isopropyl-6-(3-methoxy-phenylamino)-nicotinamide]", "values": [{"measurement": "EC50", "value": "< 300", "unit": "nM"}, {"measurement": "Emax", "value": "> 50", "unit": "%"}]}, {"molecule": "O=C(NCC1CC1)c1cnc(Nc2ccc(Cl)cc2Cl)cc1C(F)(F)F", "note": "[Example 144, N-Cyclopropylmethyl-6-(2,4-dichloro-phenylamino)-4-tri-fluoromethyl-nicotinamide]", "values": [{"measurement": "EC50", "value": "< 300", "unit": "nM"}, {"measurement": "Emax", "value": "> 50", "unit": "%"}]}, {"molecule": "CC(C)c1cc(Nc2cccc(OC(F)(F)F)c2)ncc1C(=O)NCC1CCCC1", "note": "[Example 25, N-Cyclopentylmethyl-4-isopropyl-6-(3-trifluoromethoxy-phenylamino)-nicotinamide]", "values": [{"measurement": "EC50", "value": "< 300", "unit": "nM"}, {"measurement": "Emax", "value": "> 50", "unit": "%"}]}, {"molecule": "CC(C)CNC(=O)c1cnc(Nc2cc(Cl)cc(Cl)c2)cc1C(F)(F)F", "note": "[Example 151, N-Isobutyl-6-(3,5-dichloro-phenylamino)-4-trifluoro-methyl-nicotinamide]", "values": [{"measurement": "EC50", "value": "< 300", "unit": "nM"}, {"measurement": "Emax", "value": "> 50", "unit": "%"}]}, {"molecule": "O=C(NCC1CCCCCC1)c1cnc(Nc2cccc(F)c2)cc1C(F)(F)F", "note": "[Example 125, N-Cycloheptylmethyl-6-(3-fluoro-phenylamino)-4-tri-fluoromethyl-nicotinamide]", "values": [{"measurement": "EC50", "value": "< 300", "unit": "nM"}, {"measurement": "Emax", "value": "> 50", "unit": "%"}]}, {"molecule": "O=C(NC1CCC1)c1cnc(Nc2ccc(Cl)c(Cl)c2)cc1C(F)(F)F", "note": "[Example 154, N-Cyclobutyl-6-(3,4-dichloro-phenylamino)-4-trifluoro-methyl-nicotinamide]", "values": [{"measurement": "EC50", "value": "< 300", "unit": "nM"}, {"measurement": "Emax", "value": "> 50", "unit": "%"}]}, {"molecule": "CC(C)(C)c1cc(Nc2ccc(Cl)cc2Cl)ncc1C(=O)NCC1CCCCC1", "note": "[Example 70, 4-tert-Butyl-6-(2,4-dichloro-phenylamino)-N-cyclohexylmethyl-nicotinamide]", "values": [{"measurement": "EC50", "value": "< 300", "unit": "nM"}, {"measurement": "Emax", "value": "> 50", "unit": "%"}]}, {"molecule": "O=C(NCC1CC1)c1cnc(Nc2ccc(Cl)c(Cl)c2)cc1C(F)(F)F", "note": "[Example 158, N-Cyclopropylmethyl-6-(3,4-dichloro-phenylamino)-4-tri-fluoromethyl-nicotinamide]", "values": [{"measurement": "EC50", "value": "< 300", "unit": "nM"}, {"measurement": "Emax", "value": "> 50", "unit": "%"}]}, {"molecule": "CC(C)CNC(=O)c1cnc(Nc2ccc(Cl)cc2Cl)cc1C(C)C", "note": "[Example 273, 6-(2,4-Dichloro-phenylamtno)-N-isobutyl-4-isopropyl-nicotinamide]", "values": [{"measurement": "EC50", "value": "< 300", "unit": "nM"}, {"measurement": "Emax", "value": "> 50", "unit": "%"}]}, {"molecule": "COCCNC(=O)c1cnc(Nc2cccc(Cl)c2)cc1C(C)C", "note": "[Example 57, 6-(3-Chloro-phenylamino)-4-isopropyl-N-(2-methoxy-ethyl)-nicotinamide]", "values": [{"measurement": "Emax", "value": "> 50", "unit": "%"}]}, {"molecule": "O=C(NCC1CCCC1)c1cnc(Nc2cccc(F)c2)cc1C(F)(F)F", "note": "[Example 130, N-Cyclopentylmethyl-6-(3-fluoro-phenylamino)-4-tri-fluoromethyl-nicotinamide]", "values": [{"measurement": "EC50", "value": "< 300", "unit": "nM"}, {"measurement": "Emax", "value": "> 50", "unit": "%"}]}, {"molecule": "Cc1cc(Cl)ccc1Nc1cc(C(C)C)c(C(=O)NCC2CCC2)cn1", "note": "[Example 258, 6-(4-Chloro-2-methyl-phenylamino)-N-cyclobutylmethyl-4-isopropyl-nicotinamide]", "values": [{"measurement": "EC50", "value": "< 300", "unit": "nM"}, {"measurement": "Emax", "value": "> 50", "unit": "%"}]}, {"molecule": "CC(C)c1cc(Nc2cccc(Br)c2)ncc1C(=O)NCC1CCOCC1", "note": "[Example 8, 6-(3-Bromo-phenyl-amino)-4-isopropyl-N-(tetrahydro-pyran-4-ylmethyl)-nicotinamide]", "values": [{"measurement": "Emax", "value": "> 50", "unit": "%"}]}, {"molecule": "CC(C)c1cc(Nc2ccc(C#N)cc2Cl)ncc1C(=O)NCC1CCCC1", "note": "[Example 30, 6-(2-Chloro-4-cyano-phenylamino)-N-cyclopentylmethyl-4-isopropyl-nicotinamide]", "values": [{"measurement": "EC50", "value": "< 300", "unit": "nM"}, {"measurement": "Emax", "value": "> 50", "unit": "%"}]}, {"molecule": "CC(C)c1cc(Nc2ccc(Cl)c(Cl)c2)ncc1C(=O)NCC1CCCCC1", "note": "[Example 3, N-Cyclohexylmethyl-6-(3,4-dichloro-phenylamino)-4-isopropyl-nicotinamide]", "values": [{"measurement": "EC50", "value": "< 300", "unit": "nM"}, {"measurement": "Emax", "value": "> 50", "unit": "%"}]}, {"molecule": "Cc1cc(Cl)ccc1Nc1cc(C(C)C)c(C(=O)NCC2CCOCC2)cn1", "note": "[Example 244, 6-(4-Chloro-2-methyl-phenylamino)-4-isopropyl-N-(tetrahydro-pyran-4-ylmethyl)-nicotinamide]", "values": [{"measurement": "EC50", "value": "< 300", "unit": "nM"}, {"measurement": "Emax", "value": "> 50", "unit": "%"}]}, {"molecule": "Cc1cccc(Nc2cc(C(C)C)c(C(=O)NCC3CCOCC3)cn2)c1C#N", "note": "[Example 303, 6-(2-Cyano-3-methyl-phenylamino)-4-isopropyl-N-(tetrahydropyran-4-ylmethyl)-nicotinamide]", "values": [{"measurement": "Emax", "value": "> 50", "unit": "%"}]}, {"molecule": "CC(C)c1cc(Nc2ccc(Cl)c(Cl)c2)ncc1C(=O)NCC1CCOCC1", "note": "[Example 18, 6-(3,4-Dichloro-phenylamino)-4-isopropyl-N-(tetrahydro-pyran-4-ylmethyl)-nicotinamide]", "values": [{"measurement": "EC50", "value": "< 300", "unit": "nM"}, {"measurement": "Emax", "value": "> 50", "unit": "%"}]}, {"molecule": "CC(C)c1cc(Nc2cccc(Cl)c2)ncc1C(=O)NC1CCCCC1", "note": "[Example 53, 6-(3-Chloro-Phenylamino)-N-cyclohexyl-4-isopropyl-nicotinamide]", "values": [{"measurement": "EC50", "value": "< 300", "unit": "nM"}, {"measurement": "Emax", "value": "> 50", "unit": "%"}]}, {"molecule": "CC(C)c1cc(Nc2cc(Cl)ccc2F)ncc1C(=O)NCC1CCC1", "note": "[Example 266, 6-(5-Chloro-2-fluoro-phenylamino)-N-cyclobutylmethyl-4-isopropyl-nicotinamide]", "values": [{"measurement": "EC50", "value": "< 300", "unit": "nM"}, {"measurement": "Emax", "value": "> 50", "unit": "%"}]}, {"molecule": "CC(C)c1nc(Nc2cccc(Cl)c2)ccc1C(=O)NCC1CCCCC1", "note": "[Example 211, 6-(3-Chloro-phenylamino)-N-cyclohexylmethyl-2-isopropyl-nicotinamide]", "values": [{"measurement": "EC50", "value": "< 300", "unit": "nM"}, {"measurement": "Emax", "value": "> 50", "unit": "%"}]}, {"molecule": "O=C(NCC1CCCCC1)c1cnc(Nc2cccc(Cl)c2)cc1C(F)(F)F", "note": "[Example 1, 2-(3-Chlorophenylamino)-4-trifluoromethylpyridine-5-carboxylic acid cyclohexylmethyl amide]", "values": [{"measurement": "Emax", "value": "> 50", "unit": "%"}]}, {"molecule": "CC(C)c1cc(Nc2cccc(OC(F)(F)F)c2)ncc1C(=O)NCC1CCCCC1", "note": "[Example 15, N-Cyclohexylmethyl-4-isopropyl-6-(3-trifluoromethoxy-phenylamino)-nicotinamide]", "values": [{"measurement": "EC50", "value": "< 300", "unit": "nM"}, {"measurement": "Emax", "value": "> 50", "unit": "%"}]}, {"molecule": "CC(C)c1cc(Nc2cc(F)ccc2Br)ncc1C(=O)NCC1CCOCC1", "note": "[Example 235, 6-(2-Bromo-5-fluoro-phenylamino)-4-isopropyl-N-(tetrahydro-pyran-4-ylmethyl)-nicotinamide]", "values": [{"measurement": "EC50", "value": "< 300", "unit": "nM"}, {"measurement": "Emax", "value": "> 50", "unit": "%"}]}, {"molecule": "O=C(NC1CCC1)c1cnc(Nc2cc(Cl)cc(Cl)c2)cc1C(F)(F)F", "note": "[Example 148, N-Cyclobutyl-6-(3,5-dichloro-phenylamino)-4-trifluoro-methyl-nicotinamide]", "values": [{"measurement": "EC50", "value": "< 300", "unit": "nM"}, {"measurement": "Emax", "value": "> 50", "unit": "%"}]}, {"molecule": "CC(C)c1cc(Nc2cccc(Cl)c2)ncc1C(=O)N1CCCCC1", "note": "[Example 55, 1-[6-(3-Chloro-phenylamino)-4-isopropyl-pyridin-3-yl]-1-piperidin-1-yl-methanone]", "values": [{"measurement": "EC50", "value": "< 300", "unit": "nM"}, {"measurement": "Emax", "value": "> 50", "unit": "%"}]}, {"molecule": "CC(C)c1cc(Nc2cccc(Br)c2)ncc1C(=O)NCC1CCCCC1", "note": "[Example 12, 6-(3-Bromo-cyclohexylmethyl-4-phenylamino)-N-isopropyl-nicotinamide]", "values": [{"measurement": "EC50", "value": "< 300", "unit": "nM"}, {"measurement": "Emax", "value": "> 50", "unit": "%"}]}, {"molecule": "CC(C)c1cc(Nc2ccc(Cl)cc2Cl)ncc1C(=O)NCC1CCC1", "note": "[Example 250, N-Cyclobutylmethyl-6-(2,4-dichloro-phenylamino)-4-isopropyl-nicotinamide]", "values": [{"measurement": "EC50", "value": "< 300", "unit": "nM"}, {"measurement": "Emax", "value": "> 50", "unit": "%"}]}, {"molecule": "O=C(NCC1CCCCC1)c1cnc(Nc2cccc(F)c2)cc1C(F)(F)F", "note": "[Example 128, N-Cyclohexylmethyl-6-(3-fluoro-phenylamino)-4-tri-fluoromethyl-nicotinamide]", "values": [{"measurement": "EC50", "value": "< 300", "unit": "nM"}, {"measurement": "Emax", "value": "> 50", "unit": "%"}]}, {"molecule": "Cc1cc(C#N)ccc1Nc1cc(C(C)C)c(C(=O)NCC2CCCC2)cn1", "note": "[Example 93, 6-(4-Cyano-2-methyl-phenylamino)-N-cyclopentylmethyl-4-isopropyl-nicotinamide]", "values": [{"measurement": "EC50", "value": "< 300", "unit": "nM"}, {"measurement": "Emax", "value": "> 50", "unit": "%"}]}, {"molecule": "CC(C)c1cc(Nc2cccc(Cl)c2)ncc1C(=O)NC1CCC1", "note": "[Example 50, 6-(3-Chloro-phenylamino)-N-cyclobutyl-4-isopropyl-nicotinamide]", "values": [{"measurement": "EC50", "value": "< 300", "unit": "nM"}, {"measurement": "Emax", "value": "> 50", "unit": "%"}]}, {"molecule": "CC(C)c1cc(Nc2cccc(Cl)c2)ncc1C(=O)N1CCOCC1", "note": "[Example 11, 1-[6-(3-Chloro-phenylamino)-4-isopropyl-pyridin-3-yl]-1-morpholin-4-yl-methanone]", "values": [{"measurement": "EC50", "value": "< 300", "unit": "nM"}, {"measurement": "Emax", "value": "> 50", "unit": "%"}]}, {"molecule": "CC(C)c1nc(Nc2ccc(Cl)cc2Cl)ccc1C(=O)NCC1CCCC1", "note": "[Example 213, 6-(2,4-Dichloro-phenylamino)-N-cyclopentylmethyl-2-isopropyl-nicotinamide]", "values": [{"measurement": "EC50", "value": "< 300", "unit": "nM"}, {"measurement": "Emax", "value": "> 50", "unit": "%"}]}, {"molecule": "CC(C)CNC(=O)c1cnc(Nc2cccc(Cl)c2)cc1C(C)C", "note": "[Example 268, 6-(3-Chloro-phenylamino)-N-isobutyl-4-isopropyl-nicotinamide]", "values": [{"measurement": "Emax", "value": "> 50", "unit": "%"}]}]}
